Reference: ChEMBL document CHEMBL1681645, “Pyrrolo[1,2-f]triazines as JAK2 inhibitors: achieving potency and selectivity for JAK2 over JAK3” (Bioorg Med Chem Lett, 2011)
pIC50: −log10 of the molar value.

How the values were obtained:
[1] = Selectivity ratio of IC50 for JAK1 over IC50 for JAK2
[2] = biological target: Tyrosine-protein kinase JAK2 (Homo sapiens, UniProt O60674); assay: Inhibition of JAK2 after 60 mins
[3] = Selectivity ratio of IC50 for JAK3 over IC50 for JAK2
[4] = Antiproliferative activity against human SET2 cells assessed as inhibition of [3H]thymidine incorporation after 72 hrs; assay type: functional, cell-based; conditions: SET-2
[5] = biological target: T1, Tyrosine-protein kinase JAK3 (Homo sapiens, UniProt P52333); assay: Inhibition of JAK3 after 60 mins
T1 sequence (P52333 whole entry): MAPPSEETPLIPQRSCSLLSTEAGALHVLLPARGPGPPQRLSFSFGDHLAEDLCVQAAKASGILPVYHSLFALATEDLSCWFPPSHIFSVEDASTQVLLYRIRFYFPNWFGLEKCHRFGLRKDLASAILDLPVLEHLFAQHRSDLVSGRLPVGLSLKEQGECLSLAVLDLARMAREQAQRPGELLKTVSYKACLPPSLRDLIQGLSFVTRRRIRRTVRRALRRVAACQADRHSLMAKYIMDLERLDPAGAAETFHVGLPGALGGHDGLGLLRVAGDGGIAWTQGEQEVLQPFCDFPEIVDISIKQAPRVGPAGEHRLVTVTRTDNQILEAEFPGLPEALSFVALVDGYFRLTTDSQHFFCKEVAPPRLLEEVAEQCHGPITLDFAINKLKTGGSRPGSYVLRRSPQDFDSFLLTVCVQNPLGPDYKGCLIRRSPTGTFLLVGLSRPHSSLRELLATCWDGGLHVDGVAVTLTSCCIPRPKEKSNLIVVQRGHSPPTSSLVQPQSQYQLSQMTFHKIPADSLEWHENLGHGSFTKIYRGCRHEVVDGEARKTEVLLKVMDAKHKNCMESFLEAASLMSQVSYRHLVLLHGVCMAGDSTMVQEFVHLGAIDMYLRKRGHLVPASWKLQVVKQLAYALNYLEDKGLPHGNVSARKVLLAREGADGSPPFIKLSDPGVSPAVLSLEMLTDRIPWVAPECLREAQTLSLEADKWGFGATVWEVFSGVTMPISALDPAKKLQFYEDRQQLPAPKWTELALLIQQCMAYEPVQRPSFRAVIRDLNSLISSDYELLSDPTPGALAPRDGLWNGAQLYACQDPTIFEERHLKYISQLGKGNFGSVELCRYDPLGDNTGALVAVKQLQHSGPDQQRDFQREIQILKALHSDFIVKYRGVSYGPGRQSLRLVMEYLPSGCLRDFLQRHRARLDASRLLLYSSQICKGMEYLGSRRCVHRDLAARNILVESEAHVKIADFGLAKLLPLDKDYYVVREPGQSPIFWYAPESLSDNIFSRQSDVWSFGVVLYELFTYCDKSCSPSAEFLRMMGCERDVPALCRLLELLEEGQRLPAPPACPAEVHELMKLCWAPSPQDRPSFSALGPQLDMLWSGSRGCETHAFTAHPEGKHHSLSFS

Tyrosine-protein kinase JAK2, sequence (O60674 whole entry): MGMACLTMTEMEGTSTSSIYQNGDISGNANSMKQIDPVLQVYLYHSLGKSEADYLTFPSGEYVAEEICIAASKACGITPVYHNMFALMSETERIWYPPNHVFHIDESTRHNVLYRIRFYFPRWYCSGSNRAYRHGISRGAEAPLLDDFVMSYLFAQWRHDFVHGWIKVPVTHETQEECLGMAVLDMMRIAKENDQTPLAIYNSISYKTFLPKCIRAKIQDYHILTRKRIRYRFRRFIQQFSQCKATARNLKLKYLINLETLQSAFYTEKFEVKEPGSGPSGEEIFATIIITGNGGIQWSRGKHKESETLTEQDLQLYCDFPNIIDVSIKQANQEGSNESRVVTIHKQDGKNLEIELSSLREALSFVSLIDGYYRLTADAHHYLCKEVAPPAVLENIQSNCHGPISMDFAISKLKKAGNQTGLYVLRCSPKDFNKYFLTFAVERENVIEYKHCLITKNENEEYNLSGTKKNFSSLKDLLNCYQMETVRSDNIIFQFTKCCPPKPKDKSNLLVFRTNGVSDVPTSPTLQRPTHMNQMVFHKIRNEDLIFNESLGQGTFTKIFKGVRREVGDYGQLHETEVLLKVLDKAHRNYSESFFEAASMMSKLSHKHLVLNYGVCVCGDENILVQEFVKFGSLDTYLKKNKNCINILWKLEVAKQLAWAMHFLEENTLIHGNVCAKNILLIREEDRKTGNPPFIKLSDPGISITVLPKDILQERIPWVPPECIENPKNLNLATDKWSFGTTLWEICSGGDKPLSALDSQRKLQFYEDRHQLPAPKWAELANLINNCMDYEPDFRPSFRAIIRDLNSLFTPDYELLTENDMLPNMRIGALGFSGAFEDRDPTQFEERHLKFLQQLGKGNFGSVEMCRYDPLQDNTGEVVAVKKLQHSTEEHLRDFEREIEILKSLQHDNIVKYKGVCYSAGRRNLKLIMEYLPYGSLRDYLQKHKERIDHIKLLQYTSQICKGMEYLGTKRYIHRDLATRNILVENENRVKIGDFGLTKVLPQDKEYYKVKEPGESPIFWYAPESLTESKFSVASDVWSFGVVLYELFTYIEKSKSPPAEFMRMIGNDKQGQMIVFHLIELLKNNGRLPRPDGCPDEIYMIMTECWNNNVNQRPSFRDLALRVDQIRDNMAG

## O=C(Cc1ccccc1)N1CCN(c2nc(Nc3nccs3)c3cccn3n2)CC1
[1]
  Ratio IC50: 2.6
[2]
  pIC50: 7.23
[3]
  Ratio IC50: 37
[4]
  pIC50: 5.92

## COc1cc(F)c(CC(=O)N2CCN(c3nc(Nc4cc(C)n[nH]4)c4cccn4n3)CC2)c(F)c1
[4]
  pIC50: 6.96

## Cc1cc(Nc2nc(N3CCN(C(=O)Cc4c(F)cc(Cl)cc4F)CC3)nn3cccc23)n[nH]1
[1]
  Ratio IC50: 3.8
[2]
  pIC50: 9.00
[3]
  Ratio IC50: 67
[4]
  pIC50: 7.10

## Cc1cc(Nc2nc(N3CCN(C(=O)Cc4ccccc4C)CC3)nn3cccc23)n[nH]1
[2]
  pIC50: 8.28
[4]
  pIC50: 6.92

## Cc1cc(Nc2nc(N3CCN(C(=O)c4ccccc4Cl)CC3)nn3cccc23)n[nH]1
[2]
  pIC50: 8.14
[4]
  pIC50: 7.15

## CCC(=O)N1CCN(c2nc(Nc3cc(C)[nH]n3)c3cccn3n2)CC1
[2]
  pIC50: 7.66
[3]
  Ratio IC50: 5

## Cc1cc(Nc2nc(N3CCN(C(=O)Cc4ccc(F)cc4)CC3)nn3cccc23)n[nH]1
[1]
  Ratio IC50: 6.5
[2]
  pIC50: 9.05
[3]
  Ratio IC50: 25
[4]
  pIC50: 7.27

## Cc1cc(Nc2nc(N3CCN(C(=O)c4ccccc4S(C)(=O)=O)CC3)nn3cccc23)n[nH]1
[2]
  pIC50: 8.96
[4]
  pIC50: 6.72

## O=C(Cc1ccccc1)N1CCN(c2nc(Nc3ccccn3)c3cccn3n2)CC1
[1]
  Ratio IC50: 11
[2]
  pIC50: 6.72
[3]
  Ratio IC50: 41

## Cc1ccc(C(=O)N2CCN(c3nc(Nc4cc(C)[nH]n4)c4cccn4n3)CC2)cc1
[2]
  pIC50: 8.35
[4]
  pIC50: 7.23

## CC1(c2cc(Nc3nc(N4CCN(C(=O)Cc5ccccc5)CC4)nn4cccc34)n[nH]2)CC1
[2]
  pIC50: 7.66
[4]
  pIC50: 6.01

## Cc1cc(Nc2nc(N3CCN(C(=O)c4ccccc4C)CC3)nn3cccc23)n[nH]1
[2]
  pIC50: 8.52
[4]
  pIC50: 6.80

## Cc1cc(Nc2nc(N3CCN(C(=O)Cc4ccc(Cl)cc4)CC3)nn3cccc23)n[nH]1
[2]
  pIC50: 9.22
[4]
  pIC50: 6.23

## Cc1cc(Nc2nc(N3CCN(C(=O)CCc4ccccc4)CC3)nn3cccc23)n[nH]1
[2]
  pIC50: 8.70
[4]
  pIC50: 7.12

## COc1ccc(CC(=O)N2CCN(c3nc(Nc4cc(C)[nH]n4)c4cccn4n3)CC2)cc1
[2]
  pIC50: 8.92
[4]
  pIC50: 6.20

## Cc1cc(Nc2nc(N3CCN(C(=O)Cc4ccccc4)CC3)nn3cccc23)n[nH]1
[2]
  pIC50: 8.55
[4]
  pIC50: 6.43

## CC(C)n1cnc(Nc2nc(N3CCN(C(=O)Cc4ccccc4)CC3)nn3cccc23)c1
[2]
  pIC50: 6.96
[4]
  pIC50: 6.17

## Cc1cc(Nc2nc(N3CCNCC3)nn3cccc23)n[nH]1
[1]
  Ratio IC50: 16
[3]
  Ratio IC50: 15

## Cc1nnc(Nc2nc(N3CCN(C(=O)Cc4ccccc4)CC3)nn3cccc23)s1
[2]
  pIC50: 4.85
[3]
  Ratio IC50: 1.3
[5]
  pIC50: 4.74
[4]
  pIC50: 6.16

## Cc1cc(Nc2nc(N3CCN(C(=O)Cc4ccc(F)cc4F)CC3)nn3cccc23)n[nH]1
[2]
  pIC50: 8.62
[4]
  pIC50: 7.27

## O=C(NC1CC1)c1cc(Nc2nc(N3CCN(C(=O)Cc4ccccc4)CC3)nn3cccc23)n[nH]1
[2]
  pIC50: 5.57
[4]
  pIC50: 5.85

## Cc1cc(Nc2nc(N3CCN(C(=O)c4ccccc4Br)CC3)nn3cccc23)n[nH]1
[2]
  pIC50: 8.68
[4]
  pIC50: 6.74

## Cc1cc(Nc2nc(N3CCN(C(=O)c4ccc(C#N)cc4)CC3)nn3cccc23)n[nH]1
[2]
  pIC50: 8.32
[4]
  pIC50: 8.21

## Cc1cc(Nc2nc(N3CCN(C(=O)N(C)C)CC3)nn3cccc23)n[nH]1
[1]
  Ratio IC50: 5
[3]
  Ratio IC50: 11

## Cc1cc(Nc2nc(N3CCN(C(=O)Cc4ccccc4F)CC3)nn3cccc23)n[nH]1
[2]
  pIC50: 8.34
[4]
  pIC50: 6.77

## COc1ccccc1C(=O)N1CCN(c2nc(Nc3cc(C)[nH]n3)c3cccn3n2)CC1
[2]
  pIC50: 8.46
[4]
  pIC50: 7.05

## Cc1cc(Nc2nc(N3CCN(C(=O)N(C)C)CC3)nn3cccc23)[nH]n1
[2]
  pIC50: 8.03

## Cc1cc(Nc2nc(N3CCN(C(=O)c4ccccc4C#N)CC3)nn3cccc23)n[nH]1
[2]
  pIC50: 8.22
[4]
  pIC50: 6.85

## Cc1cc(Nc2nc(N3CCN(C(=O)c4ccccc4)CC3)nn3cccc23)n[nH]1
[2]
  pIC50: 8.66
[4]
  pIC50: 7.21

## Cc1ccc(CC(=O)N2CCN(c3nc(Nc4cc(C)[nH]n4)c4cccn4n3)CC2)cc1
[2]
  pIC50: 8.96
[4]
  pIC50: 6.51
